Experimental data: PubChem BioAssay AID1918957 (Molecular Pharmacology Branch, DTP, NCI, 2023)
Several values for one entry are separate records, joined by “and”; a condition that tells them apart may be missing. Equal values may be shown once.

Tested on: NCI-H1876 complex spheroid viability
Test: Anticancer human tumor NCI-H1876 cell line growth inhibition [LSD1];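 further: spheroids exposed to compounds for one week before readout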;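 on viability, T/C: 100% = DMSO vehicle-treated spheroids so lower means fewer viable cells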
Conditions: for viability, T/C: stronger effect = lower value; active means viability on the fitted dose curve at most 10% of control; inactive means the rest
Source text: Multicellular complex tumor spheroid response to LSD1 Inhibitor Iadademstat in combination with a variety of drugs and investigational agents in selected tumor cell lines
The current study was undertaken to assess response to LSD1 inhibitors in combination with standard-of-care drugs and investigational agents in solid tumor complex spheroid models as well as in the K-562 leukemia. Complex spheroids include a stromal component modeled by human endothelial cells (HUVEC) and fibroblasts modeled by human mesenchymal stem cells (MSCs). The concentration ranges selected for each drug and investigational agent were based upon clinically achievable concentrations if the clinical Cmax of the agent was known.
Compounds. The drugs and investigational agents used in this study are listed on Table 1. All of the agents used, including staurosporine (NSC755774) and gemcitabine (NSC613327), were obtained from the Developmental Therapeutics Program, NCI. FDA-approved anticancer drugs are available from the NCI at http://dtp.nci.nih.gov/branches/dscb/oncology_drugset_explanation.html. Drugs and investigational agents were >95% pure by proton nuclear magnetic resonance (NMR) and liquid chromatography/mass spectrometry (LC/MS). Stock solutions were prepared at 400x in DMSO, stored at -70 degrees C, and diluted in fresh medium prior to their use. The final concentration of DMSO in cell culture wells never exceeded 0.25% (v/v). The FDA-approved anticancer drug set is available from the Developmental Therapeutics Program at https://dtp.cancer.gov/organization/dscb/obtaining/available_plates.htm. All drugs and investigational agents were tested over a range starting from a high concentration at or near the clinical Cmax and decreasing in half-log increments. If the clinical Cmax for an agent had not been determined, the highest concentration tested was 10 microM.
Cell Lines. The patient-derived cancer cell (PDC) lines: 292921-168-R-J2-PDC, K24384-001-R-PDC, and 521955-158-R2-J5-PDC pancreatic carcinomas, 556581-035-R-J1 ovarian carcinoma, 324938-238-R-J1-PDC, 855422-203-R-J1-PDC and 883617-216-R-J1-PDC urothelial bladder carcinomas, 743489-274-T-PDC renal cell carcinoma, 138582-R-J1 Merkel cell tumor, K60290-347-R-J1 and K57222-313-R-J1-PDC glioblastomas, 653999-131-R-J2-PDC, LG0703-F948-PDC, and 349418-098-R-PDC non-small cell lung carcinomas, 885512-296-R-J2-PDC, 171881-019-R-J1-PDC breast carcinomas and 186277-243-T-J2-PDC and 233499-124-R-J2-PDC colon carcinomas were obtained from the NCI Patient-Derived Models Repository (PDMR, https://pdmr.cancer.gov). The established cell lines NCI/ADR-RES (RRID:CVCL_14520 and OVCAR-5 (RRID:CVCL_1628) ovarian carcinomas, 786-O (RRID:CVCL_1051) and A498 (RRID:CVCL_A498) renal cell carcinoma, NCI-H211 (ATCC, cat. CRL-5824; RRID:CVCL_1529), NCI-H196 (ATCC, cat. CRL-5823, RRID:CVCL_1509), SW 1271 (ATCC, cat. CRL-2177, RRID:CVCL_1716) and NCI-H1876 (ATCC, cat. CRL-5902, RRID:CVCL_1503) small cell lung carcinomas, MDA-MB-231 (RRID:CVCL_0062) and MDA-MB-468 (RRID:CVCL_0419)breast carcinomas (10-12). Pooled donor human umbilical vein endothelial cells (HUVEC, Lonza, cat. CC-2519) and human mesenchymal stem cells (hMSC, Lonza, cat. PT-2501) were purchased from Lonza (Walkersville, MD).
Cell Culture. All cells were maintained in an incubator at 37 degrees C and 5% CO2 with 95% humidity. The PDC lines were cultured according to standard operating procedures established by the NCI PDMR (https://pdmr.cancer.gov). Briefly all PDCs were thawed and cultured in Matrigel-coated flasks prepared with a working solution of 1X Ham's F-12 nutrient mix, without supplementation (Invitrogen, Waltham, MA, cat. 11765054), 100 U/mL penicillin-streptomycin (Invitrogen, cat. 15140122), and 2.5% Matrigel (Corning Inc., Corning, NY, cat. 354248) for the first three passages. […]

[1] = curve of first compound, second compound 0.1 µM
[2] = curve of first compound, second compound 0.316 µM
[3] = curve of first compound, second compound 1 µM
[4] = curve of first compound, second compound 3.16 µM
[5] = curve of first compound, second compound 10 µM
[6] = second compound 0.1 µM, first compound 0.00949 µM
[7] = second compound 0.1 µM, first compound 0.03 µM
[8] = second compound 0.1 µM, first compound 0.0949 µM
[9] = second compound 0.1 µM, first compound 0.3 µM
[10] = second compound 0.1 µM, first compound 0.949 µM
[11] = second compound 0.1 µM, first compound 3 µM
[12] = second compound 0.316 µM, first compound 0.00949 µM
[13] = second compound 0.316 µM, first compound 0.03 µM
[14] = second compound 0.316 µM, first compound 0.0949 µM
[15] = second compound 0.316 µM, first compound 0.3 µM
[16] = second compound 0.316 µM, first compound 0.949 µM
[17] = second compound 0.316 µM, first compound 3 µM
[18] = second compound 1 µM, first compound 0.00949 µM
[19] = second compound 1 µM, first compound 0.03 µM
[20] = second compound 1 µM, first compound 0.0949 µM
[21] = second compound 1 µM, first compound 0.3 µM
[22] = second compound 1 µM, first compound 0.949 µM
[23] = second compound 1 µM, first compound 3 µM
[24] = second compound 3.16 µM, first compound 0.00949 µM
[25] = second compound 3.16 µM, first compound 0.03 µM
[26] = second compound 3.16 µM, first compound 0.0949 µM
[27] = second compound 3.16 µM, first compound 0.3 µM
[28] = second compound 3.16 µM, first compound 0.949 µM
[29] = second compound 3.16 µM, first compound 3 µM
[30] = second compound 10 µM, first compound 0.00949 µM
[31] = second compound 10 µM, first compound 0.03 µM
[32] = second compound 10 µM, first compound 0.0949 µM
[33] = second compound 10 µM, first compound 0.3 µM
[34] = second compound 10 µM, first compound 0.949 µM
[35] = second compound 10 µM, first compound 3 µM

CCc1c2c(nc3ccc(O)cc13)-c1cc3c(c(=O)n1C2)COC(=O)[C@]3(O)CC
< 0.949 nM: IC50 (curve of compound)
active: viability, T/C (compound 0.000949 µM) 8.16% and 5.21% | viability, T/C (compound 0.003 µM) 6.7% and 3.21% | viability, T/C (compound 0.00949 µM) 3.77% and 1.73% | viability, T/C (compound 0.03 µM) 0.82% and 0.45% | viability, T/C (compound 0.0949 µM) 0.56% and 0.42% | viability, T/C (compound 0.3 µM) 0.51% and 0.41%

Cn1ncnc1C1c2n[nH]c(=O)c3cc(F)cc(c23)NC1c1ccc(F)cc1 (stereo unspecified)
inactive: viability, T/C (compound 0.000316 µM) 100% and 104% | viability, T/C (compound 0.001 µM) 95% and 107% | viability, T/C (compound 0.00316 µM) 107% and 100% | viability, T/C (compound 0.01 µM) 107% and 100% | viability, T/C (compound 0.0316 µM) 94.9% and 93.5% | viability, T/C (compound 0.1 µM) 93.8% and 79.9%
> 100 nM: IC50 (curve of compound)

O=C(C=Cc1cccc(S(=O)(=O)Nc2ccccc2)c1)NO + NC1CCC(NC2CC2c2ccccc2)CC1
158 nM: IC50 [5]
179 nM: IC50 [3]
196 nM: IC50 [1]
inactive: viability, T/C [6] 109% | viability, T/C [7] 103% | viability, T/C [8] 89.3% | viability, T/C [9] 27% | viability, T/C [10] 12.8% | viability, T/C [11] 10.9% | viability, T/C [12] 103% | viability, T/C [13] 101% | viability, T/C [14] 87% | viability, T/C [15] 27.1% | viability, T/C [16] 13.9% | viability, T/C [17] 19.6% | viability, T/C [18] 103% | viability, T/C [19] 105% | viability, T/C [20] 77.3% | viability, T/C [21] 27.3% | viability, T/C [24] 101% | viability, T/C [25] 106% | viability, T/C [26] 82.2% | viability, T/C [27] 29.8% | viability, T/C [30] 105% | viability, T/C [31] 99.3% | viability, T/C [32] 69.8% | viability, T/C [33] 26.6% | viability, T/C [34] 3.06% | viability, T/C [35] 19.4%
193 nM: IC50 [2] | IC50 [4]
active: viability, T/C [22] 6.13% | viability, T/C [23] 0.61% | viability, T/C [28] 4.78% | viability, T/C [29] 0.3%

Nc1ccn(C2OC(CO)C(O)C2(F)F)c(=O)n1 (stereo unspecified)
10.5% and 7.09%: viability, T/C (compound 0.3 µM)
23.6% and 9.68%: viability, T/C (compound 0.03 µM)
inactive: viability, T/C (compound 0.000949 µM) 98.6% and 98.7% | viability, T/C (compound 0.003 µM) 53.8% and 86.9% | viability, T/C (compound 0.00949 µM) 29.2% and 23.5%
3.7 nM and 5.87 nM: IC50 (curve of compound)
11.3% and 8.77%: viability, T/C (compound 0.0949 µM)

Nc1ccccc1NC(=O)c1ccc(CNC(=O)OCc2cccnc2)cc1 + NC1CCC(NC2CC2c2ccccc2)CC1
active: viability, T/C [10] 4.45% | viability, T/C [11] 1.28% | viability, T/C [16] 3.15% | viability, T/C [17] 1.03% | viability, T/C [22] 11.6% | viability, T/C [23] 1.66% | viability, T/C [28] 2.36% | viability, T/C [29] 0.71% | viability, T/C [34] 10.6% | viability, T/C [35] 1.74%
177 nM: IC50 [2]
inactive: viability, T/C [6] 98.5% | viability, T/C [7] 109% | viability, T/C [8] 90.6% | viability, T/C [9] 21.2% | viability, T/C [12] 113% | viability, T/C [13] 108% | viability, T/C [14] 78.3% | viability, T/C [15] 26.3% | viability, T/C [18] 114% | viability, T/C [19] 115% | viability, T/C [20] 86.2% | viability, T/C [21] 23.3% | viability, T/C [24] 111% | viability, T/C [25] 104% | viability, T/C [26] 80% | viability, T/C [27] 21.2% | viability, T/C [30] 102% | viability, T/C [31] 102% | viability, T/C [32] 86.5% | viability, T/C [33] 20.2%
179 nM: IC50 [5]
170 nM: IC50 [4]
186 nM: IC50 [1]
185 nM: IC50 [3]

CCc1c2c(nc3ccc(O)cc13)-c1cc3c(c(=O)n1C2)COC(=O)[C@]3(O)CC + NC1CC1c1ccc(-c2cccc(O)c2)cc1
active: viability, T/C (second compound 0.1 µM, first compound 0.000949 µM) 5.07% | viability, T/C (second compound 0.1 µM, first compound 0.003 µM) 3.61% | viability, T/C [6] 1.59% | viability, T/C [7] 0.3% | viability, T/C [8] 0.22% | viability, T/C [9] 0.31% | viability, T/C (second compound 0.316 µM, first compound 0.000949 µM) 5.4% | viability, T/C (second compound 0.316 µM, first compound 0.003 µM) 3.71% | viability, T/C [12] 1.52% | viability, T/C [13] 0.19% | viability, T/C [14] 0.15% | viability, T/C [15] 0.25% | viability, T/C (second compound 1 µM, first compound 0.000949 µM) 5.18% | viability, T/C (second compound 1 µM, first compound 0.003 µM) 3.15% | viability, T/C [18] 1.5% | viability, T/C [19] 0.39% | viability, T/C [20] 0.6% | viability, T/C [21] 0.3% | viability, T/C (second compound 3.16 µM, first compound 0.000949 µM) 5.73% | viability, T/C (second compound 3.16 µM, first compound 0.003 µM) 3.61% | viability, T/C [24] 1.99% | viability, T/C [25] 0.43% | viability, T/C [26] 0.32% | viability, T/C [27] 0.32% | viability, T/C (second compound 10 µM, first compound 0.000949 µM) 6.65% | viability, T/C (second compound 10 µM, first compound 0.003 µM) 4.79% | viability, T/C [30] 3.56% | viability, T/C [31] 0.81% | viability, T/C [32] 0.56% | viability, T/C [33] 0.86%
< 0.949 nM: IC50 [1] | IC50 [2] | IC50 [3] | IC50 [4] | IC50 [5]
